{
  "source": "patent US5500428A",
  "about": "“Furyl-substituted purines and adenosine antagonists” (Imperial Chemical Industries PLC, priority 1991, dated 1996)",
  "target": "T1, A2 Adenosine receptor (Rattus norvegicus, UniProt P30543)",
  "T1 construct": "membrane preparations derived from the rat phaeochromocytoma cell line PC 12; host or cells: PC 12 rat phaeochromocytoma cells, membranes",
  "T1 sequence (P30543 whole entry)": "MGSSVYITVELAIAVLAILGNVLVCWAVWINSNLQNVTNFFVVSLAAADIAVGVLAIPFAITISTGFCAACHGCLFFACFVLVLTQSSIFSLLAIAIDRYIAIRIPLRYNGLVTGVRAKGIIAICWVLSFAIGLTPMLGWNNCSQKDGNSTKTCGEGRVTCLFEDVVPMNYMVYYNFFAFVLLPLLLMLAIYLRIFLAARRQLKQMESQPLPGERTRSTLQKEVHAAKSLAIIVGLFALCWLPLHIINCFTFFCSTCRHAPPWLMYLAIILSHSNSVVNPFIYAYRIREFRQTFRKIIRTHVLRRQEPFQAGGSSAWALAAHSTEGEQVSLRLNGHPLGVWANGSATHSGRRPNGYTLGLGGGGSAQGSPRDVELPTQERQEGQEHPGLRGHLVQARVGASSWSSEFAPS",
  "assay": "A2 Adenosine receptor affinity test: displacement of [3H]-NECA from PC 12 cell membrane preparations",
  "format": "binding",
  "experimental": "The membrane preparation is obtained as follows: Frozen pellets of PC12 cells are washed twice with ice cold, buffered, physiological saline and the cells recovered by centrifugation (1500 G) at 3° C. The separated cells are then suspended in hypotonic solution (distilled water), allowed to stand on ice for 30 minutes and are then carefully homogenized using a standard high-speed homogeniser with periodic ice-cooling to obtain a fine suspension. […] The mixture is then incubated at 37° C. After 20 minutes, the reaction is terminated by dilution with ice-cold buffer and transfer onto ice. The material obtained containing the cell membranes is recovered by centrifugation and washed by resuspension in buffer and recentrifugation. The pellet produced is then resuspended in ice-cold buffer using a hand-driven homogenizer. The resultant membrane suspension is frozen and stored under liquid nitrogen until required.\nAfter incubation, the samples are rapidly filtered over glass-fibre mats and the filter mats are washed to remove non-receptor-bound radioligand. Receptor-bound radioligand entrapped on the filter mats is then determined by liquid scintillation counting. Filtration and washing are carried out using a conventional vacuum filtration cell harvester. The specific binding (defined as the difference between the total binding and the non-specific binding) in the presence of the particular test compound is determined and compared with the control value.",
  "key": {"[1]": {"settings": "read-out: displacement of control binding"}},
  "data": [
    {"molecule": "COc1ccc(CCNc2nc(N)c3nc(-c4ccco4)oc3n2)cc1", "note": "[Example 1, 7-amino-2-(2-furyl)-5-[2-(4-methoxyphenyl)ethyl]asino-oxazolo[5,4-d]pyrimidine]", "values": [
      {"measurement": "IC50", "setting": "[3H]-NECA displacement, PC 12 membranes, inferred from displacement at 10^-5 M and 10^-7 M, read-out: pIC50 (indicated by the % displacement values) (converted)", "value": "< 100", "unit": "nM"},
      {"measurement": "inhibition at 0.1 µM", "setting": "[1]", "value": 59, "unit": "%"},
      {"measurement": "inhibition at 10 µM", "setting": "[1]", "value": 78, "unit": "%"}
    ]}
  ]
}
